According to article PMC3929365, “Benzimidazoisoquinolines: A New Class of Rapidly Metabolized Aryl Hydrocarbon Receptor (AhR) Ligands that Induce AhR-Dependent Tregs and Prevent Murine Graft-Versus-Host Disease” (PLoS ONE, 2014):
pIC50: −log10 of the molar value. Several values for one entry are separate records, joined by “and”; a condition that tells them apart may be missing. Equal entries are not always repeated.

Legend:
[1] = tested on: AhR; assay: AhR-regulated (XRE) luciferase reporter gene assay in Hepa-1 cells; format: cell-based, mouse; details: 10 nM, 12 h, Hepa1 cells, XRE-luciferase reporter
Method: Figure 1 10-Cl-BBQ is a potent AhR ligand. A) Structure of 10-Cl-BBQ. […] C) Hepa-1 cells expressing endogenous AhR were transfected with an AhR-regulated luciferase reporter gene (xenobiotic responsive element (XRE)-MMTVpromoter-Luc) and the reporter gene activity was measured after 12 h of treatment with 1 nM TCDD or the indicated concentrations of 10-Cl-BBQ. D) Alteration in proteolytic pattern of AhR by 10-Cl-BBQ. Whole cell lysate (45 µg of protein) from mouse hepatoma Hepa1c1c7 cells was incubated with 100 nM 10-Cl-BBQ or 0.1% DMSO for 1 h at RT and proteolyzed by 1 µg/ml subtilisin for 1, 2, 4, and 8 min at RT. Proteolytic cleavage products of AhR were analyzed by immunoblot. E) Electrophoretic mobility shift assay showing the ligand-stimulated binding of AhR to XRE. Whole cell lysate (18 µg of protein) from mouse hepatoma Hepa1c1c7 cells was incubated with 10 nM 10-Cl-BBQ or 0.1% DMSO for 2 h at room temperature and ^32P-labeled oligonucleotide containing XRE for 20 min at room temperature. The samples were electrophoresed on a native polyacrylamide gel and the signal was visualized by Phosphor Imager. Unlabeled competitor XRE or antibody (Ab) against AhR or Arnt was co-incubated with ^32P-labeled oligonucleotide.
The mean luciferase activity is shown with SEM. […] 3-MC binding to AhR.

[2] = tested on: AhR
Method: The AhR reporter gene assay was performed as previously described (20–22).
B) Hepa1 cells expressing endogenous AhR were transfected with a XRE-luciferase reporter gene. […] The mean luciferase activity is shown with SEM. C) Dose response curves for the competitive inhibition of [^3H] 3-MC binding to AhR.
3-methylcholanthrene (3-MC) to AhR (Fig. 5C).

[3] = tested on: donor CD4+ T cells; assay: AhR-Treg phenotype of alloactivated donor CD4+ T cells 48 h after initiating the GVH response; format: in vivo, B6D2F1 host mice; details: 10 mg/kg i.p. day 0 and day 1, analysed day 2, vs vehicle
Method: Splenocytes and lymphocytes were harvested from C57Bl/6 mice. In some experiments, T cells were purified by negative selection using a Pan-T kit (Miltenyi Biotec) and stained with 2 µM carboxyfluorescein succinimidyl ester (CFSE) (Life Technologies). At least 2×10^7 purified T cells or approximately 1×10^8 pooled splenocytes and lymphocytes were injected i.v. into B6D2F1 host mice to initiate the GVH response. GVHD pathology was assessed on a scale of 0 to 3 (0 = normal, 1 = moderate morbidity, 2 = severe morbidity, 3 = death) according to the following five criteria: weight-loss, posture, activity, fur texture and death and reported as a Clinical GVHD Score.
Host mice were treated daily with vehicle, 10-Cl-BBQ or BBQ analogues by i.p. injection. The vehicle consisted of a mixture of 6.7% anisole and peanut oil. Mice treated with a single i.p. dose of 15 µg TCDD/kg body weight in the same vehicle were used as positive controls.
Antibodies to CTLA-4, Foxp3, ICOS, CD62L, CD25, CD19, CD44) and a fixable viability dye were purchased from eBiosciences. Additional antibody reagents included CD4 and CD8 (Life Technologies); H-2D^d (Biolegend) and CD45RB (PharMingen). After surface staining, the cells were fixed and permeabilized with Cytofix/cytoperm (BD Biosciences) for intracellular CTLA-4 stain. The flow cytometry data were acquired on an FC500 instrument (Beckman Coulter) and the data were analyzed using WinList 7.0 (Verity Software House). Fluorescence minus one (FMO) controls were used for setting histogram gates during the analysis.
Figure 3 10-Cl-BBQ induces an AhR-dependent Treg phenotype 48 h after initiating the GVH response. On day 0, B6D2F1 host mice in groups of 5 were injected with CFSE-labeled C57Bl/6 T cells and given 15 mg/kg 10-Cl-BBQ, 15 µg/kg TCDD or vehicle by i.p. injection. At 24 h, an additional dose of 7 mg/kg 10-Cl-BBQ or vehicle was given. […] Treatment mean ± SEM is shown in the quadrant of interest. […] C) AhR-dependent induction of the donor Treg phenotype by 10-Cl-BBQ. On day 0, B6D2F1 host mice in groups of 5 were injected with donor T cells obtained from AhR^+/+ or AhR^−/− C57Bl/6 mice. Host mice were treated with 2 mg/kg10-Cl-BBQ or vehicle immediately following donor cell transfer and again at 24 hr. […] D) Dose-dependent induction of Treg phenotype by 10-Cl-BBQ. On day 0, B6D2F1 host mice in groups of 3–5 were injected with C57Bl/6 T cells. Mice were immediately treated with 0, 0.4, 2 or 10 mg/kg 10-Cl-BBQ and again on day 1. On day 2, expression of markers associated with the AhR-Treg phenotype increased as the dose of 10-Cl-BBQ increased. E) In the same mice as in D, lymph nodes were harvested and analyzed for expression of genes that were previously shown to increase under the same GVH conditions with TCDD treatment (13). […] Changes in gene expression were calculated relative to the β-actin gene, and the fold-induction was calculated by the ΔΔCt method using the vehicle-treated samples as a control. * = p<0.05 relative to vehicle treatment. […]

[4] = tested on: CaMKK; design: method as in PMID 11867640; details: cited from earlier work
[5] = tested on: AhR; design: method as in PMID 18755850; details: MCF-7 cells and human macrophages; cited from earlier work

Row | Molecule | activation of AhR (AhR-regulated reporter gene activity) [1] | pIC50 [2] | percentage of alloresponsive donor CD4+ T cells expressing CD25 with AhR-Treg markers ICOS, CD62Llow and CTLA-4 [3] | concentration known to fully inhibit CaMKK [4] [µM] | concentration at which AhR activation occurred [5] [µM]
1 | 11-Chloro-8H-benzimidazo[2,1-a]phenanthro[3,4,5-defg]isoquinolin-8-one [analogue 3] | 2 fold |  |  |  | 
2 | Clc1cc2c(cc1Cl)Oc1cc(Cl)c(Cl)cc1O2 [TCDD, 2,3,7,8-tetrachlorodibenzo-p-dioxin, reference compound] |  | 8.33 |  |  | 
3 | O=c1c2cccc3cccc(c32)c2nc3ccccc3n12 [analogue 1, 7H-Benzimidazo[2,1-a]benzo[de]isoquinolin-7-one] | 13 fold | 7.86 | significantly increased |  | 
4 | NN1C(=O)c2ccc3c(=O)n4c5ccc(Cl)cc5nc4c4ccc(c2c34)C1=O [analogue 2, 2-Amino-10-chlorobenzimidazo[2,1-b]benzo[lmn][3,8]phenanthroline-1,3,6(2H)-trione] | did not induce reporter activity |  |  |  | 
5 | O=c1c2ccc(Cl)c3cccc(c32)c2nc3cc(Cl)ccc3n12 [analogue 4, 4,11-Dichloro-7H-benzimidazo[2,1-a]benzo[de]isoquinolin-7-one] | 19 fold | 8.28 | significantly increased |  | 
6 | O=C(O)c1ccc2c3c1cccc3c(=O)n1c3ccccc3nc21 [analogue 5, 7-Oxo-7H-benzimidazo[2,1-a]benzo[de]isoquinoline-3-carboxylic acid, reference compound] | did not induce reporter activity | 4.34 and 4.35 |  | 25 | 25
